Laboratory results published in patent US4622327A, “2H-azeto[2,1-a]-isoquinoline derivatives and pharmaceutical compositions containing them” (Richter Gedeon Vegyeszeti Gyar R.T., priority 1983, dated 1986).

Columns and labels:
[1] = test system: tonic, extensoric spasm; experiment: Maximum electroshock; assay type: in vivo; settings: mice, 30 mg/kg oral, one hour before test
Procedure: (§1) For the pharmacological tests CFLP (LATI) mice of both sexes, weighing 18 to 22 g each and male Han. Wistar (LATI) rats weighing 160 to 180 g each were used. The test materials were administered orally, in 30 mg/kg doses, in the form of a suspension containing 5% of Tween 80, one hour before the tests.
1. Maximum electroshock (mice)
The shock was applied through a corneal electrode (20 mA, 0.2 msec, HSE Schockgerat typ. 207).

[2] = test system: pentylenetetrazole spasm; experiment: Metrazole spasm; assay type: in vivo; settings: mice, 30 mg/kg oral, pentylenetetrazole 125 mg/kg s.c., observation one hour
Procedure: as §1
2. Metrazole spasm (mice)
After pretreatment the animals were administered 125 mg/kg of pentylenetetrazole subcutaneously.
Observation time: one hour (Everett L. M. and Richards R. K.: J. Pharmacol. Exp. Ther. 81, 402/1944/).

[3] = test system: acetic acid-induced writhing syndrome; experiment: Analgesic activity (acetic acid writhing syndrome); assay type: in vivo, mice; settings: for Analgesic activity: 30 mg/kg oral, change in writhing frequency vs control
Procedure: as §1
4. Analgesic activity (mice)
One hour after pretreatment, mice were administered 0.4 ml of a 0.6% acetic acid solution intraperitoneally, as a pain stimulus. The frequency of writhing syndrome is registered for 30 minutes. The changes observed as a result of treatment with the test compounds is related to the mean value of the frequency of writhing syndrome in the control group, and the difference is expressed in percentage (Koster R. et al.: Exp. Ther. 72:74/1941/).

[4] = test system: hyperthermia induced with Brewer's yeast; experiment: Antipyretic activity (Brewer's yeast hyperthermia); assay type: in vivo, rats; settings: for ED50: Rattus norvegicus, po, read-out: Antipyretic activity, ED50
Procedure: as §1
5. Antipyretic activity (rats)
Hyperthermia is induced in rats with Brewer's yeast suspension (0.5% of Brewer's yeast, 1% of arabic gum in a volume of 0.3 ml, s.c.). The animals are treated with the test materials 4 hours later, and the tracheal temperature of the animals is registered with an ELAB thermometer (typ. TE-3) for 4 hours. The antipyretic activity is expressed in percentage of the animals which have an at least one centrigrade lower temperature than the average of the temperature of the control group treated with the solvent (Nimegeers C. J. E. et al.: Arzneimittel Forsch. 25:15/9/1975/).

Row | Structure (SMILES) | Antispasm activity, max. electroshock [1] | Antispasm activity, metrazole, b (tonic extensoric spasm) [2] | Analgesic activity ([3]; mice) | Antipyretic activity ([4]; rats, 30 mg/kg oral, % of animals with at least one centigrade lower temperature than control) | analgesic effect in words ([3]; 30 mg/kg) | ED50 ([3]; Mus musculus, po, read-out: Analgesic activity, ED50) | ED50 [4] | decrease of the frequency of acetic acid-induced writhing syndrome ([3]; mice, 30 mg/kg) | antipyretic potency relative to Na-salicylate ([4]; rats)
1 | CCOc1cc2c(cc1OCC)C1C(CCl)CN1CC2.Cl (stereo not shown) [Compound B, 1-(chloromethyl)-7,8-diethoxy-1,4,5,9b-tetrahydro-2H-azeto[2,1-a]isoquinoline hydrochloride] | 20.0 | 24.0 | 20.0% | 30.0% | – | – | – | – | –
2 | O=C(O)c1ccccc1O [Na--salycilate, reference compound] | – | 20.0 | – | – | ineffective | 113 mg/kg | 110 mg/kg | – | –
3 | COc1cc2c(cc1OC)C1C(CCl)CN1CC2.I (stereo not shown) [Compound A, 1-(chloromethyl)-7,8-dimethoxy-1,4,5,9b-tetrahydro-2H-azeto[2,1-a]isoquinoline hydroiodide] | – | 20.0 | 30.0% | – | – | – | 75 mg/kg | about 30% | one and a half-times more potent
